# Laboratory results: patent US20260035384A1, “COMPOUND CONTAINING CYCLOHEXYL” (CHIA TAI TIANQING PHARMACEUTICAL GROUP CO., LTD., priority 2022, published 2026)
# Test system: VCaP cells
# Assay: Assay on inhibitory activity for VCaP cell proliferation (CCK-8)
# Format: cell-based
# Conditions: 168 h incubation
# Method: (§1) 2.1 Assay on inhibitory activity for VCaP cell proliferation VCaP cells in a good growth state were taken, washed with PBS, digested with pancreatin, and added with 5% CSS—FBS phenol red-free DMEM complete medium to terminate the digestion. The cells were collected by using a centrifuge tube, adjusted to a cell density of 1×10^5 cells/mL, and seeded in a 96-well plate (100 μL/well). Meanwhile, compounds were added using a nanoliter pipettor such that the final concentrations of the compounds were 10000 nM-0.61 nM. Two duplicate wells were set for each concentration, and meanwhile, a control was set. After another 168 h of incubation in the cell incubator, the detection reagent CCK-8 (manufacturer: Dojindo, 10 μL/well) was added.
row,SMILES,IC50 [nM]
1,N#Cc1ccc(O[C@H]2CC[C@H](NC(=O)c3cnc(N4CCN(CC5Cc6ccc7c(C8CCC(=O)NC8=O)noc7c6C5)CC4)nc3)CC2)cc1Cl (stereo partly drawn) [Compound 124],< 1000

# Same assay, conditions: Homo sapiens, 168 h incubation
row,SMILES,IC50 [nM]
1,CN(c1ccc(C#N)c(Cl)c1)[C@H]1CC[C@H](NC(=O)c2ccc(N3CCC(CN4CCc5ccc6c(C7CCC(=O)NC7=O)noc6c5CC4)CC3)cc2)CC1 (stereo partly drawn) [Compound 59],< 10

# Same assay, conditions: Homo sapiens, VCaP, 168 h, 168 h incubation
row,SMILES,IC50 [nM]
1,N#Cc1ccc(O[C@H]2CC[C@H](NC(=O)c3ccc(N4CCC(CN5CC(n6ncc7c8c(C9CCC(=O)NC9=O)noc8ccc76)C5)CC4)nn3)CC2)cc1Cl (stereo partly drawn) [Compound 42],< 10
2,CN(c1ccc(C#N)c(Cl)c1)[C@H]1CC[C@H](NC(=O)c2ccc(C3CCN(CC4Cc5ccc6c(C7CCC(=O)NC7=O)noc6c5C4)CC3)cc2)CC1 (stereo partly drawn) [Compound 68],< 10
3,N#Cc1ccc(O[C@H]2CC[C@H](NC(=O)c3ccc(N4CCC(N5CC(CN6Cc7cc8onc(C9CCC(=O)NC9=O)c8cc7C6)C5)CC4)nn3)CC2)cc1Cl (stereo partly drawn) [Compound 101],< 10
4,N#Cc1ccc(O[C@H]2CC[C@H](NC(=O)c3cnc(N4CCC(N5CC(CN6Cc7ccc8c(C9CCC(=O)NC9=O)coc8c7C6)C5)CC4)nc3)CC2)cc1Cl (stereo partly drawn) [Compound 103],< 10
5,N#Cc1ccc(O[C@H]2CC[C@H](NC(=O)c3cnc(N4CCC(N5CC(CN6CCc7ccc8c(C9CCC(=O)NC9=O)coc8c7C6)C5)CC4)nc3)CC2)cc1Cl (stereo partly drawn) [Compound 104],< 10
6,N#Cc1ccc(O[C@H]2CC[C@H](NC(=O)c3cnc(N4CCC(N5CC(CN6CCc7c(ccc8c(C9CCC(=O)NC9=O)coc78)C6)C5)CC4)nc3)CC2)cc1Cl (stereo partly drawn) [Compound 105],< 10
7,N#Cc1ccc(O[C@H]2CC[C@H](NC(=O)c3cnc(N4CCC(N5CC(CN6CCc7ccc8c(C9CCC(=O)NC9=O)coc8c7CC6)C5)CC4)nc3)CC2)cc1Cl (stereo partly drawn) [Compound 106],< 100
8,CN(c1ccc(C#N)c(Cl)c1)[C@H]1CC[C@H](NC(=O)c2cnc(N3CCC(CN4Cc5ccc6c(C7CCC(=O)NC7=O)noc6c5C4)CC3)nc2)CC1 (stereo partly drawn) [Compound 115],< 1000
9,N#Cc1ccc(O[C@H]2CC[C@H](NC(=O)c3cnc(C4CCN(CC5Cc6ccc7c(C8CCC(=O)NC8=O)noc7c6C5)CC4)nc3)CC2)cc1Cl (stereo partly drawn) [Compound 125],< 1000
10,N#Cc1ccc(O[C@H]2CC[C@H](NC(=O)c3cnc(C4=CCN(CC5Cc6ccc7c(C8CCC(=O)NC8=O)noc7c6C5)CC4)nc3)CC2)cc1Cl (stereo partly drawn) [Compound 127],< 100

# Test system: LNCaP cells
# Assay: Assay on inhibitory activity for LNCaP cell proliferation (CCK-8)
# Format: cell-based
# Conditions: 168 h incubation
# Method: as §1, with “LNCaP” for “2.1 Assay on inhibitory activity for VCaP cell proliferation VCaP”, “2%” for “5%”, “1640” for “DMEM”
row,SMILES,IC50 [nM]
1,N#Cc1ccc(O[C@H]2CC[C@H](NC(=O)c3ccc(C4CCN(CC5Cc6ccc7c(C8CCC(=O)NC8=O)noc7c6C5)CC4)nn3)CC2)cc1Cl (stereo partly drawn) [Compound 31],< 1000
2,N#Cc1ccc(O[C@H]2CC[C@H](NC(=O)c3ccc(C4CCN(CC5Cc6ccc7c(C8CCC(=O)NC8=O)coc7c6C5)CC4)nn3)CC2)cc1Cl (stereo partly drawn) [Compound 33],< 1000

# Same assay, conditions: Homo sapiens, 168 h incubation
row,SMILES,IC50 [nM]
1,"N#Cc1ccc(O[C@H]2CC[C@H](NC(=O)c3ccc(C4CCN(C[C@H]5C[C@@H](n6ccc7c8c(C9CCC(=O)NC9=O)noc8ccc76)C5)CC4)nn3)CC2)cc1Cl (single isomer, unassigned) [Compound 51]",< 1000
2,"N#Cc1ccc(O[C@H]2CC[C@H](NC(=O)c3ccc(C4CCN(C[C@H]5C[C@H](n6ccc7c8c(C9CCC(=O)NC9=O)noc8ccc76)C5)CC4)nn3)CC2)cc1Cl (single isomer, unassigned) [Compound 52]",< 1000
3,N#Cc1ccc(O[C@H]2CC[C@H](NC(=O)c3ccc(N4CCC(N5CCc6ccc7c(C8CCC(=O)NC8=O)noc7c6CC5)CC4)nn3)CC2)cc1Cl (stereo partly drawn) [Compound 23],< 1000
4,N#Cc1ccc(O[C@H]2CC[C@H](NC(=O)c3ccc(N4CCN(CC5Cc6cc(C7CCC(=O)NC7=O)c7ccoc7c6C5)CC4)nn3)CC2)cc1Cl (stereo partly drawn) [Compound 29],< 1000
5,N#Cc1ccc(O[C@H]2CC[C@H](NC(=O)c3ccc(C4CCN(CC5Cc6ccc7c(C8CCC(=O)NC8=O)noc7c6C5)CC4)nn3)CC2)cc1Cl (stereo partly drawn) [Compound 30],< 1000
6,N#Cc1ccc(O[C@H]2CC[C@H](NC(=O)c3ccc(C4CCN(CC5Cc6ccc7c(C8CCC(=O)NC8=O)coc7c6C5)CC4)nn3)CC2)cc1Cl (stereo partly drawn) [Compound 32],< 1000
7,N#Cc1ccc(O[C@H]2CC[C@H](NC(=O)c3ccc(N4CCC(CN5CC(n6ccc7c8c(C9CCC(=O)NC9=O)noc8ccc76)C5)CC4)nn3)CC2)cc1Cl (stereo partly drawn) [Compound 38],< 1000
8,N#Cc1ccc(O[C@H]2CC[C@H](NC(=O)c3ccc(N4CCC(N5CC(n6ccc7c8c(C9CCC(=O)NC9=O)noc8ccc76)C5)CC4)nn3)CC2)cc1Cl (stereo partly drawn) [Compound 39],< 1000
9,N#Cc1ccc(O[C@H]2CC[C@H](NC(=O)c3ccc(N4CCC(N5CCC(n6ccc7c8c(C9CCC(=O)NC9=O)noc8ccc76)CC5)CC4)nn3)CC2)cc1Cl (stereo partly drawn) [Compound 40],< 1000
10,N#Cc1ccc(O[C@H]2CC[C@H](NC(=O)c3ccc(N4CCC(N5CC(n6ncc7c8c(C9CCC(=O)NC9=O)noc8ccc76)C5)CC4)nn3)CC2)cc1Cl (stereo partly drawn) [Compound 43],< 1000
11,N#Cc1ccc(O[C@H]2CC[C@H](NC(=O)c3ccc(N4CCC(CN5CC(n6cc7c(ccc8onc(C9CCC(=O)NC9=O)c87)n6)C5)CC4)nn3)CC2)cc1Cl (stereo partly drawn) [Compound 44],< 1000
12,N#Cc1ccc(O[C@H]2CC[C@H](NC(=O)c3ccc(C4CCN([C@H]5C[C@@H](n6ccc7c8c(C9CCC(=O)NC9=O)noc8ccc76)C5)CC4)nn3)CC2)cc1Cl (stereo partly drawn) [Compound 49],< 1000
13,N#Cc1ccc(O[C@H]2CC[C@H](NC(=O)c3ccc(C4CCN([C@H]5C[C@H](n6ccc7c8c(C9CCC(=O)NC9=O)noc8ccc76)C5)CC4)nn3)CC2)cc1Cl (stereo partly drawn) [Compound 50],< 1000
14,N#Cc1ccc(O[C@H]2CC[C@H](NC(=O)c3ccc(C4CCN([C@H]5CC[C@@H](n6ccc7c8c(C9CCC(=O)NC9=O)noc8ccc76)CC5)CC4)nn3)CC2)cc1Cl (stereo partly drawn) [Compound 54],< 1000
15,N#Cc1ccc(O[C@H]2CC[C@H](NC(=O)c3ccc(C4CCN([C@H]5CC[C@H](n6ccc7c8c(C9CCC(=O)NC9=O)noc8ccc76)CC5)CC4)nn3)CC2)cc1Cl (stereo partly drawn) [Compound 55],< 1000
16,N#Cc1ccc(O[C@H]2CC[C@H](NC(=O)c3ccc(N4CCC(CN5Cc6cc7onc(C8CCC(=O)NC8=O)c7cc6C5)CC4)nn3)CC2)cc1Cl (stereo partly drawn) [Compound 100],< 1000
17,CN(c1ccc(C#N)c(Cl)c1)[C@H]1CC[C@H](NC(=O)c2cnc(N3CCC(CN4CCc5ccc6c(C7CCC(=O)NC7=O)noc6c5C4)CC3)nc2)CC1 (stereo partly drawn) [Compound 116],< 1000
18,N#Cc1ccc(O[C@H]2CC[C@H](NC(=O)c3cnc(N4CCC(CN5CCc6ccc7c(C8CCC(=O)NC8=O)coc7c6CC5)CC4)nc3)CC2)cc1Cl (stereo partly drawn) [Compound 135],< 1000
19,N#Cc1ccc(O[C@H]2CC[C@H](NC(=O)c3cnc(N4CCC(CN5Cc6ccc7c(N8CCC(=O)NC8=O)coc7c6C5)CC4)nc3)CC2)cc1Cl [Compound 138],< 1000
20,N#Cc1ccc(O[C@H]2CC[C@H](NC(=O)c3cnc(N4CCC(CN5CCc6ccc7c(N8CCC(=O)NC8=O)coc7c6CC5)CC4)nc3)CC2)cc1Cl [Compound 141],< 1000
21,N#Cc1ccc(O[C@H]2CC[C@H](NC(=O)c3cnc(N4CC[C@H](CN5CCc6c(ccc7c(C8CCC(=O)NC8=O)noc67)C5)C4)nc3)CC2)cc1Cl (stereo partly drawn) [Compound 143],< 1000
22,N#Cc1ccc(O[C@H]2CC[C@H](NC(=O)c3cnc(N4CC[C@@H](CN5CCc6c(ccc7c(C8CCC(=O)NC8=O)noc67)C5)C4)nc3)CC2)cc1Cl (stereo partly drawn) [Compound 144],< 1000
